Experimental findings from ChEMBL document CHEMBL2331177, “Pleurospiroketals A-E, perhydrobenzannulated 5,5-spiroketal sesquiterpenes from the edible mushroom Pleurotus cornucopiae” (J Nat Prod, 2013) are described below.

Broadly, the IC50 is the concentration needed to halve the response being measured. The low end stands for higher potency, the high end for lower potency.

The subject of data set [1] is RAW264.7. Nature of the data set: Inhibition of LPS-induced nitric oxide production in mouse RAW264.7 cells treated 1 hr before LPS challenge measured after 24 hrs by Griess reaction method. It is filed as functional, cell-based.
Data set [2] relates to HeLa. Kind of data set: Cytotoxicity against human HeLa cells after 72 hrs by MTT assay. Format: functional, cell-based.
Data set [3] has as its system RAW264.7. Kind of data set: Cytotoxicity against mouse RAW264.7 cells at 100 uM. Particulars: raw264.7, 100 µM. Format: cell-based.

For `C=C1[C@H]2CC[C@](C)(O)[C@H](O)[C@H]2O[C@@]12OC(C)(C)CC2=O` [PLEUROSPIROKETAL A], the figures for the half-inhibitory concentration (IC50) in data set [1] and in data set [2] were 6.8 µM and 20.6 µM, respectively. Further, in data set [3], the Activity result is recorded as “Non-toxic”.

For the molecule `CC(=O)OCC1=C2CC[C@](C)(O)[C@H](O)[C@H]2O[C@@]12OC(C)(C)CC2=O` [PLEUROSPIROKETAL C], the figures for the concentration for half-maximal inhibition (IC50) in data set [1] and in data set [2] were 20.8 µM and 18.8 µM, respectively. Moreover, the Activity result in data set [3] is “Non-toxic”.

`C[C@]12CCC(=O)C=C1CC[C@@H]1[C@@H]2[C@@H](O)C[C@@]2(C)[C@H]1CC[C@]2(O)C(=O)CO` [HYDROCORTISONE]: in data set [1], the IC50 amounted to 53.8 µM.

As to `C=C1[C@H]2CC[C@](C)(O)[C@H](O)[C@H]2O[C@]12OC(C)(C)CC2=O` [PLEUROSPIROKETAL B], the IC50 in data set [1] came out at 12.6 µM; in data set [2], 32.8 µM. Also, the Activity result in data set [3] was “Non-toxic”.
